≈ marks a conversion by molar mass, not a printed value. Where two headings read alike, the source gives them in different places. Marks after values point to notes of the source that are not given here.
Legend:
[1] = tested on: LPS-treated 3T3-L1 adipocytes; test: Adiponectin secretion in LPS/3T3-L1 adipocytes; type: cell-based, murine; conditions: for Maximum adiponectin stimulation: 100 ng/ml LPS, D5 3T3-L1; for Concentration of maximum stimulation of adiponectin secretion: LPS/3T3-L1 adipocytes; for Emax: Mus musculus, 3T3-L1, at the concentration of maximum stimulation (c1), NS = not significantly different from the LPS control
[2] = tested on: insulin-resistant 3T3-L1 adipocytes; test: Adiponectin secretion from insulin-resistant 3T3-L1 adipocytes; type: cell-based, murine; conditions: for Adiponectin/IL-6: ratio of Adiponectin Index to IL-6 Index, insulin-resistant 3T3-L1 adipocytes; for EC50: Mus musculus; for Maximum Adiponectin Secretion: estimated from the y-intercept of Hofstee plots; for dose at which maximal adiponectin secretion was observed: of four doses tested
[3] = tested on: TNFα-treated 3T3-L1 adipocytes; test: IL-6 secretion from TNFα-treated 3T3-L1 adipocytes; type: cell-based, murine; conditions: for IL-6 Index: D5 3T3-L1 adipocytes, indexed to TNFα control
[4] = tested on: LPS-stimulated 3T3-L1 adipocytes; test: IL-6 secretion in LPS/3T3-L1 adipocytes; type: cell-based, murine; conditions: 100 ng LPS/ml, D5 3T3-L1 adipocytes
[5] = tested on: TNFα-treated 3T3-L1 adipocytes; test: Adiponectin secretion from TNFα-treated 3T3-L1 adipocytes; type: cell-based, murine
Procedure: For two days, the cells were allowed grow to reach confluence. […] (3) 0.5 μM dexamethasone and (4) 10 μg/ml insulin (MDI medium). […] Adiponectin Assay—The adiponectin secreted into the medium was quantified using the Mouse Adiponectin Quantikine® Immunoassay kit with no modifications (R&D Systems, Minneapolis, Minn.). […] Statistical Calculations and Interpretation—All assays were preformed in duplicate. […] Differences among the doses and test agents were determined using the Student's t-test without correction for multiple comparisons; the nominal five percent probability of a type I error was selected.

[6] = tested on: A549 pulmonary epithelial cells; test: Mite dust allergen stimulated PGE2 biosynthesis in A549 cells; type: cell-based, human; conditions: 10 μg/ml, added 60 min before mite dust allergen 1000 ng/ml, 18 h
Excerpt: Mite dust allergen isolation—Dermatophagoides farinae is the American house dust mite. D. farinae were raised on a 1:1 ratio of Purina Laboratory Chow (Ralston Purina, Co, St. Louis, Mo.) and Fleischmann's granulated dry yeast (Standard Brands, Inc. New York, N.Y.) at room temperature and 75% humidity. Live mites were aspirated from the culture container as they migrated from the medium, killed by freezing, desiccated and stored at 0% humidity. The allergenic component of the mite dust was extracted with water at ambient temperature. Five-hundred mg of mite powder were added to 5 ml of water (1:10 w/v) in a 15 ml conical centrifuge tube (VWR, Rochester, N.Y.), shaken for one minute and allowed to stand overnight at ambient temperature. The next day, the aqueous phase was filtered using a 0.2 μm disposable syringe filter (Nalgene, Rochester, N.Y.). The filtrate was termed mite dust allergen and used to test for induction of PGE2 biosynthesis in A549 pulmonary epithelial cells.
Cell culture and treatment—The human airway epithelial cell line, A549 (American Type Culture Collection, Bethesda, Md.) was cultured and treated as previously described in Example 6. Mite allergen was added to the culture medium to achieve a final concentration of 1000 ng/ml. Eighteen hours later, the media were sampled for PGE2 determination.

3T3-L1 adipocytes = test: Lipogenesis (Oil Red O / BODIPY) in 3T3-L1 adipocytes; type: cell-based, murine; conditions: 50 μg test material/ml
Procedure: Prior to experiments, cells were cultured in DMEM containing 10% FBS-HI added 50 units penicillin/ml and 50 μg streptomycin/ml, and maintained in log phase prior to experimental setup. Cells were grown in a 5% CO2 humidified incubator at 37° C. Components of the pre-confluent medium included (1) 10% FBS/DMEM containing 4.5 g glucose/L; (2) 50 U/ml penicillin; and (3) 50 μg/ml streptomycin. Growth medium was made by adding 50 ml of heat inactivated FBS and 5 ml of penicillin/streptomycin to 500 ml DMEM. This medium was stored at 4° C. Before use, the medium was warmed to 37° C. in a water bath.
3T3-T1 cells were seeded at an initial density of 6×10^4 cells/cm^2 in 24-well plates. For two days, the cells were allowed grow to reach confluence. […]
Oil Red O Staining—Triglyceride content of D6/D7-differentiated 3T3-L1 cells was estimated with Oil Red O according to the method of Kasturi and Joshi [Kasturi, R. and Joshi, V. C. […] The resulting stained oil droplets were extracted from the cells with isopropanol and quantified by spectrophotometric analysis at 540 nm (MEL312e BIO-KINETICS READER, Bio-Tek Instruments, Winooski, Vt.). […]

[7] = Non-fasting serum glucose and insulin in db/db diabetic mice; type: in vivo, mouse; conditions: three consecutive days
Procedure: The Model—Male, C57BLKS/J m^+/m^+Lepr^db (db/db) mice were used to assess the potential of the test materials to reduce fasting serum glucose or insulin concentrations. This strain of mice is resistant to leptin by virtue of the absence of a functioning leptin receptor.
Testing Procedure—Test substances were administered daily by gavage in 0.2% Tween-80. Serum was collected from the retroorbital sinus before the initial dose and ninety minutes after the third and final dose. Non-fasting serum glucose was determined enzymatically by the mutarotase/glucose oxidase method and serum insulin was determined by a mouse specific ELISA.
The Model—Male, C57BLKS/J m+/m+ Leprdb (db/db) mice were used to assess the potential of the test materials to reduce fasting serum glucose or insulin concentrations. This strain of mice is resistant to leptin by virtue of the absence of a functioning leptin receptor.
Testing Procedure—Test substances were administered daily by gavage in 0.2% Tween-80. Serum was collected from the retroorbital sinus before the initial dose and ninety minutes after the fifth and final dose. Non-fasting serum glucose was determined enzymatically by the mutarotase/glucose oxidase method and serum insulin was determined by a mouse specific ELISA.

[8] = tested on: NF-kBp65 nuclear translocation; test: Nuclear NF-kBp65 (TransAM) in TNFα-treated 3T3-L1 adipocytes; type: cell-based, murine; conditions: for inhibition of nuclear translocation of NF-kBp65 / inhibition at 5 µg/mL: 5.0 μg/ml; for inhibition at […] / inhibition at 5 µg/mL: Mus musculus; for inhibition at […]: 2.5 μg/ml
Procedure: Cell Culture and Treatment—Following differentiation 3T3-L1 adipocytes were maintained in post-differentiation medium for an additional 40 days. […] Hops derivatives and the positive control pioglitazone were tested at concentrations of 2.5, and 5.0 μg/ml. Test materials were added 1 hour prior to and nuclear extracts were prepared three and 24 hours following treatment with TNFα.
ELISA—3T3-L1 adipocytes were maintained in growth media for 40 days following differentiation. Nuclear NF-kBp65 was determined using the TransAM™ NF-kB kit from Active Motif (Carlsbad, Calif.) was used with no modifications. Jurkat nuclear extracts provided in the kit were derived from cells cultured in medium supplemented with 50 ng/ml TPA (phorbol, 12-myristate, 13 acetate) and 0.5 μM calcium ionophore A23187 for two hours at 37° C. immediately prior to harvesting.
Protein assay—Nuclear protein was quantified using the Active Motif Fluorescent Protein Quantification Kit.

[9] = Collagen induced rheumatoid arthritis murine model; type: in vivo, mouse; conditions: 10 mg/kg
[10] = tested on: RL 95-2 endometrial cancer cells; test: Cancer cell proliferation, CyQuant; type: cell-based; conditions: Homo sapiens, RL95-2; 10 μg/ml, 72 hours; read-out: inhibition of cell proliferation relative to the DMSO solvent control
Procedure: Methods—The inhibitory effects of test compounds of the present invention on cancer cell proliferation were examined in the RL 95-2 endometrial cancer cell model (an over expressor of AKT kinase), and in the HT-29 (constitutively expressing COX-2) and SW480 (constitutively expressing activated AKT kinase) colon cancer cell models. Briefly, the target cells were plated into 96 well tissue culture plates and allowed to grow until subconfluent. The cells were then treated for 72 hours with various amounts of the test compounds as described in Example 4 and relative cell proliferation determined by the CyQuant (Invitrogen, Carlsbad, Calif.) commercial fluorescence assay.

[11] = Mus musculus, 3T3-L1, 1.0 μg/ml, with 10 ng TNFα/ml, read-out: % Inhibition of IL-6 secretion
[12] = 3T3-L1, 3 h, three hours post TNFα

Compound: COc1ccc2c(c1)c(CC(=O)O)c(C)n2C(=O)c1ccc(Cl)cc1 [Indomethacin, indomethacin]
- Maximum adiponectin stimulation [1]: 9%

Compound: Cc1c(C)c2c(c(C)c1O)CCC(C)(COc1ccc(CC3SC(=O)NC3=O)cc1)O2 (centres unmarked) [Troglitazone]
- Adiponectin/IL-6 ([2]; 5.0 μg/ml): 1.12
- EC50 ([2]; 3T3-L1, half maximal adiponectin secretion, estimated from the slope of Hofstee plots, insulin-resistant 3T3-L1 cells, read-out: Test Material at Half Maximal Secretion): 0.085 µg/mL (≈ 0.193 µM)
- EC50 ([2]; 3T3-L1, slope of modified Hofstee plot, read-out: concentration required for half maximal adiponectin secretion): 0.085 µg/mL (≈ 0.193 µM)
- Maximum Adiponectin Secretion ([2]; insulin-resistant 3T3-L1 cells): 2.29 Fold relative to control
- Maximum adiponectin secretion estimated from the y-intercept ([2]; modified Hofstee plot): 2.29 fold
- inhibition at 1 µg/mL ([3]; Mus musculus, 3T3-L1, 1 μg/ml, 10 ng TNFα/ml, read-out: inhibition of IL-6 secretion relative to the controls): 34%
- inhibition at 1 µg/mL [3, 11]: 34%
- Concentration providing the maximum inhibition of IL-6 secretion [4]: 10.0 µg/mL
- Concentration of maximum adiponectin secretion ([5]; 10 ng TNFα/ml): 0.625 µg/mL
- maximum increase of adiponectin secretion over the TNFα control ([5]; 10 ng TNFα/ml): 51%
- Maximum adiponectin stimulation [1]: 15%
- Concentration of maximum stimulation of adiponectin secretion [1]: 0.625 µg/mL
- Emax [1]: 15%

Compound: Beta acids
- Percent PGE2 Inhibition [6]: 83%

Compound: CC(=O)Oc1ccccc1C(=O)O [Aspirin]
- Concentration providing the maximum inhibition of IL-6 secretion [4]: 25.0 µg/mL
- Maximum adiponectin stimulation [1]: failed to induce adiponectin secretion
- Concentration of maximum stimulation of adiponectin secretion [1]: 113 µg/mL
- Emax [1]: < 7%

Compound: O=C(O)c1ccccc1O [salicylic acid]
- Concentration providing the maximum inhibition of IL-6 secretion [4]: 50.0 µg/mL
- Maximum adiponectin stimulation [1]: failed to induce adiponectin secretion
- Concentration of maximum stimulation of adiponectin secretion [1]: 173 µg/mL
- Emax [1]: < 7%

Compound: CN(C)C(=N)N=C(N)N [metformin, Metformin]
- lipogenic index (observed) (3T3-L1 adipocytes): 0.79
- reduction in serum insulin [7]: 17%
- IL-6 Index ([3]; 1.0 μg/ml, with 10 ng TNFα/ml): 0.91
- IL-6 Index ([3]; 5.0 μg/ml, with 10 ng TNFα/ml): 0.96
- IL-6 Index ([3]; 10 μg/ml, with 10 ng TNFα/ml): 0.78
- IL-6 Index ([3]; 50 μg/ml, with 10 ng TNFα/ml): 0.78
- inhibition at 1 µg/mL [3, 11]: 9%
- inhibition at 5 µg/mL ([3]; Mus musculus, 3T3-L1, 5.0 μg/ml, with 10 ng TNFα/ml): 4%
- inhibition at 10 µg/mL ([3]; Mus musculus, 3T3-L1, 10 μg/ml, with 10 ng TNFα/ml): 22%
- inhibition at 50 µg/mL ([3]; Mus musculus, 3T3-L1, 50 μg/ml, with 10 ng TNFα/ml): 22%

Compound: CC(C)CCC1=C(O)C(C(=O)C(C)C)=C(O)C(CCC(C)C)(CCC(C)C)C1=O [Hexahydrocolupulone (HHCL)]
- Adiponectin/IL-6 ([2]; 50.0 μg/ml): 0.60#

Compound: CCc1ccc(CCOc2ccc(CC3SC(=O)NC3=O)cc2)nc1 (centres unmarked) [Pioglitazone]
- inhibition of nuclear translocation of NF-kBp65 ([8]; 24 hours post TNFα): did not inhibit
- inhibition of nuclear translocation of NF-kBp65 ([8]; three hours post TNFα): did not inhibit
- Concentration providing the maximum inhibition of IL-6 secretion [4]: 5.00 µg/mL
- Concentration of maximum adiponectin secretion ([5]; 10 ng TNFα/ml): 1.25 µg/mL
- maximum increase of adiponectin secretion over the TNFα control ([5]; 10 ng TNFα/ml): 80%
- Adiponectin Index Observed ([5]; 1.0 μg/ml, TNFα/3T3-L1 model, indexed to TNFα control (Table 26)): 1.80
- Concentration of maximum adiponectin secretion ([5]; Table 16, 10 ng TNFα/ml): 1.25 µg/mL
- Adiponectin Index ([5]; Table 16, maximum over four doses, 10 ng TNFα/ml): 1.47
- Maximum adiponectin stimulation [1]: 12%
- Concentration of maximum stimulation of adiponectin secretion [1]: 1.25 µg/mL
- Emax [1]: 12%

Compound: C[C@]12C=CC(=O)C=C1CC[C@@H]1[C@@H]2[C@@H](O)C[C@@]2(C)[C@H]1CC[C@]2(O)C(=O)CO [prednisolone]
- days with significant reduction of arthritic index [9]: 30 to 42 days

Compound: CC(C)CCC1=C(O)C(C(=O)C(C)C)=C(O)C(CCC(C)C)(CCC(C)C)C1=O [hexahydro colupulone, hexahydrocolupulone]
- Maximum Adiponectin Secretion ([2]; insulin-resistant 3T3-L1 cells): 1.83 Fold relative to control
- dose at which maximal adiponectin secretion was observed [2]: 12.5 µg/mL
- concentration required for half maximal adiponectin secretion ([2]; slope of modified Hofstee plot): 3.2 µg/mL

Compound: COc1cc(O)c(CC=C(C)C)c(O)c1C(=O)/C=C/c1ccc(O)cc1 [xanthohumol]
- inhibition at 10 µg/mL [10]: > 50%
- inhibition at […] [8, 12]: 6.9%
- inhibition at 5 µg/mL [8, 12]: 15.6%
- inhibition at […] ([8]; 3T3-L1, 24 hours post TNFα): 8%
- inhibition at 5 µg/mL ([8]; 3T3-L1, 24 hours post TNFα): 13.4%
- dose at which maximal adiponectin secretion was observed [2]: 1.25 µg/mL

Compound: CC(C)Cc1ccc(C(C)C(=O)O)cc1 (centres unmarked) [ibuprofen]
- Concentration providing the maximum inhibition of IL-6 secretion [4]: 0.625 µg/mL
- Maximum adiponectin stimulation [1]: 22%
- Concentration of maximum stimulation of adiponectin secretion [1]: 0.625 µg/mL
- Emax [1]: 22%
